{"source": "patent EP0299457A2", "about": "“Novel benzothiophenes having antiallergic activity and both novel and other selected benzothiophenes having activity for treating acute respiratory distress syndrome” (WARNER-LAMBERT COMPANY, priority 1987, dated 1989)", "key": {"human neutrophils": {"test_system": "human neutrophils", "experiment": "Inhibition of superoxide (O₂⁻) generation from neutrophils", "type": "cell-based", "conditions": "Neutrophil", "from_the_text": "(§1) The one assay provides IC₅₀'s for the inhibition of superoxide generation. DeChatelet, L. R., Shirley, P. S. and Johnson, R. B. 1976. Effect of phorbol myristate acetate on the oxidative metabolism of human polymorphonuclear leukocytes. Blood 47:545-554. The other assay is a generally recognized in vivo assay to show activity useful for treating ARDS. The in vivo assay is described in J. Clin. Invest., Vol. 69, May 1982, pp 1126-1135.\nThe activity for each of these compounds as numbered above is expressed as IC₅₀'s for the inhibition of superoxide generation and is shown in the following Table A: TABLE A\nFurther, activity for compounds of examples noted in the following Table A₁ likewise show IC₅₀'s for the inhibition of superoxide generation. TABLE A1"}, "[1]": {"test_system": "CVF Induced Lung Injury in Rats", "experiment": "Inhibition of cobra venom factor (CVF) induced lung injury in rats (in vivo ARDS assay)", "conditions": "for Lung Injury (x ± SEM): saline control 0.20 ± 0.01, CVF alone 1.45 ± 0.19", "from_the_text": "as §1\nAccordingly, the compounds of the Formula II are now found to be particularly useful for treating ARDS shown by the inhibition of cobra venom factor (CVF) induced lung injury in rats using the Compound No. 1 above in the in vivo assay shown as follows in Table B: TABLE B"}, "[2]": {"conditions": "Table A1, read-out: IC₅₀ (µM) Inhibition of O₂⁻ generation from neutrophils"}, "[3]": {"conditions": "given intravenously (20 mg/kg) 10 minutes before intravenous injection of CVF"}, "[4]": {"conditions": "injected intraperitoneally (20 mg/kg) 20 minutes before CVF"}, "[5]": {"conditions": "Table A, read-out: IC₅₀ (µM) Inhibition of O₂⁻ generation from neutrophils"}}, "note": "Read-outs that look alike come from different tables or passages of the source.", "data": [{"smiles": "CC(C)Oc1c(C(=O)Nc2nnn[nH]2)sc2ccc(O)cc12", "note": "[Example C20A, 3-(1-Methylethoxy)-5-hydroxy-N-1H-tetrazol-5-yl-benzo[b]-thiophene-2-carboxamide]", "values": [{"measurement": "IC50", "setting": "human neutrophils; [2]", "result": 48, "unit": "µM"}]}, {"smiles": "COc1cc2sc(C(=O)Nc3nnn[nH]3)c(Oc3ccccc3)c2cc1OC", "note": "[Example C21]", "values": [{"measurement": "IC50", "setting": "human neutrophils; [2]", "result": 6, "unit": "µM"}]}, {"smiles": "COc1cc2sc(C(=O)Nc3nnn[nH]3)c(OCc3ccccc3)c2cc1OC", "note": "[Example C21A, 5,6-Dimethoxy-3-(phenylmethoxy)-N-1H-tetrazol-5-yl-benzo[b]thiophene-2-carboxamide]", "values": [{"measurement": "IC50", "setting": "human neutrophils; [2]", "result": 40, "unit": "µM"}]}, {"smiles": "COc1ccc2sc(C(=O)Nc3nnn[nH]3)c(OC(C)C)c2c1", "note": "[Compound No. 1, 5-Methoxy-3-(1-methylethoxy)-N-1H-tetrazol-5-yl-benzo[b]thiophene-2-carboxamide]", "values": [{"measurement": "Protection % Inhibition of Injury", "setting": "[1]; [3]", "result": 76, "unit": "%"}, {"measurement": "Lung Injury (x ± SEM)", "setting": "[1]; [3]", "result": "0.48 ± 0.08"}, {"measurement": "Protection % Inhibition of Injury", "setting": "[1]; [4]", "result": 58, "unit": "%"}, {"measurement": "Lung Injury (x ± SEM)", "setting": "[1]; [4]", "result": "0.73 ± 0.06"}, {"measurement": "IC50", "setting": "human neutrophils; [5]", "result": 19, "unit": "µM"}]}, {"smiles": "COc1ccc2c(OC(C)C)c(C(=O)Nc3nnn[nH]3)oc2c1", "note": "[compound 4, 6-Methoxy-3-(1-methylethoxy)-N-1H-tetrazol-5-yl-2-benzofurancarboxamide]", "values": [{"measurement": "IC50", "setting": "human neutrophils; [5]", "result": 75, "unit": "µM"}]}, {"smiles": "COc1ccc2c(Oc3ccccc3)c(C(=O)Nc3nnn[nH]3)sc2c1", "note": "[Example C21D, 6-Methoxy-3-phenoxy-N-1H-tetrazol-5-yl-benzo[b]thiophene-2-carboxamide]", "values": [{"measurement": "IC50", "setting": "human neutrophils; [2]", "result": "> 100", "unit": "µM"}]}, {"smiles": "COc1ccc2sc(C(=O)Nc3nnn[nH]3)c(OCc3ccccc3)c2c1", "note": "[compound 5, 3-Benzyloxy-5-methoxy-N-1H-tetrazol-5-yl-benzo[b]thiophene-2-carboxamide]", "values": [{"measurement": "IC50", "setting": "human neutrophils; [5]", "result": 23, "unit": "µM"}]}, {"smiles": "COc1ccc2c(OC(C)C)c(C(=O)Nc3nnn[nH]3)sc2c1", "note": "[compound 2, 6-Methoxy-3-(1-methylethoxy)-N-1H-tetrazol-5-yl-benzo[b]thiophene-2-carboxamide]", "values": [{"measurement": "IC50", "setting": "human neutrophils; [5]", "result": 37, "unit": "µM"}]}, {"smiles": "COc1ccc2sc(C(=O)Nc3nnn[nH]3)c(Oc3ccccc3)c2c1", "note": "[compound 6, 5-Methoxy-3-phenoxy-N-1H-tetrazol-5-yl-benzo[b]thiophene-2-carboxamide]", "values": [{"measurement": "IC50", "setting": "human neutrophils; [5]", "result": 10, "unit": "µM"}]}, {"smiles": "COc1ccc2sc(C(=O)Nc3nnn[nH]3)c(SC(C)C)c2c1", "note": "[compound 3, 5-Methoxy-3-[(1-methylethyl)thio-N-1Htetrazol-5-yl]-benzo[b]thiophene-2-carboxamide]", "values": [{"measurement": "IC50", "setting": "human neutrophils; [5]", "result": 23, "unit": "µM"}]}]}
